# Laboratory results published in ChEMBL document CHEMBL2074347, “Circumvention of tumor multidrug resistance by a new annonaceous acetogenin: atemoyacin-B” (Acta Pharmacol Sin, 1999).
# Assays:
# [1] = biological target: T1, ATP-dependent translocase ABCB1 (Homo sapiens, UniProt P08183); assay: TP_TRANSPORTER: increase in Fura-2 intracellular accumulation (Fura-2: ? uM, Ateomyacin-B: 168 uM) in MCF-7/Dox cells; assay type: functional, cell-based
# [2] = biological target: T1, ATP-dependent translocase ABCB1; assay: TP_TRANSPORTER: increase in Doxorubicin intracellular accumulation (Doxorubicin: ? uM, Ateomyacin-B: 168 uM) in MCF-7/Dox cells; assay type: functional, cell-based
# T1 sequence (P08183 whole entry): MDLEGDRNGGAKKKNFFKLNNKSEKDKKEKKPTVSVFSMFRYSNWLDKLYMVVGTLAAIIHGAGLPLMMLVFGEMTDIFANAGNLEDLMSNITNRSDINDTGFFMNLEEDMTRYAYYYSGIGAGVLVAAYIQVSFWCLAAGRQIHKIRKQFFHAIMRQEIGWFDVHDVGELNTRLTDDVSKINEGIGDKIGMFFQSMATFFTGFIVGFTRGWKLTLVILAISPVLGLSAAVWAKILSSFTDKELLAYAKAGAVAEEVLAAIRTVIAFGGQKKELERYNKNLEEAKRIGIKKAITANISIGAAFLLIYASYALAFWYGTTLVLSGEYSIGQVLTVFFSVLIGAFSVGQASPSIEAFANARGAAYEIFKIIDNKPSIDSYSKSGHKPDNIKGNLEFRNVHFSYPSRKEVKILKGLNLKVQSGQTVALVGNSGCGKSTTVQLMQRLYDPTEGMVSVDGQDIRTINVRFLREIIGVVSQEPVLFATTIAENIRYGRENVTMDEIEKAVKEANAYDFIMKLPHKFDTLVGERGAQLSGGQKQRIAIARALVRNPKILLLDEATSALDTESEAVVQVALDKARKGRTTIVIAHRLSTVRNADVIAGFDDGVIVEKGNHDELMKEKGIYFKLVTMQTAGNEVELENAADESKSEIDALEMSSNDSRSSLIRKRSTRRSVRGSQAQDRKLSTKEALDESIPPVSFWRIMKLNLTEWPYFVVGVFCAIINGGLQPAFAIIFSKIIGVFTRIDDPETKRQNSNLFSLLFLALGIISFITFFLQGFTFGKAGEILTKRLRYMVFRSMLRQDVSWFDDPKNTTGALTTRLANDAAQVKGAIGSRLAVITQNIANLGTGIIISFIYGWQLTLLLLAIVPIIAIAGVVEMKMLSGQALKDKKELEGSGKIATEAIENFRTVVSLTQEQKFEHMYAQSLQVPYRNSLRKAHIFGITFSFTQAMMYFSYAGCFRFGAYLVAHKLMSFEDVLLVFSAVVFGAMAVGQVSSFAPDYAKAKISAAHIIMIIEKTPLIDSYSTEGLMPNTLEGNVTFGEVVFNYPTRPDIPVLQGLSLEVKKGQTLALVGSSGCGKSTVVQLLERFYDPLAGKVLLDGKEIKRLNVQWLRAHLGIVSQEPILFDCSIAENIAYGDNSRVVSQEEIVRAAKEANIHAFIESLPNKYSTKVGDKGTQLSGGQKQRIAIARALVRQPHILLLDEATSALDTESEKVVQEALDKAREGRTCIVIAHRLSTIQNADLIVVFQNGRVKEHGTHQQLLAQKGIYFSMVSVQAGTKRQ
smiles,measurement,setting,value
CCCCCC(O)CCCCC(O)C1CCC(C2CCC(C(O)CCCCCCCCCCC3=CC(C)OC3=O)O2)O1 (configuration not stated) [Atemoyacin-B],Activity,[1],2.61 fold
same,Activity,[2],3.28 fold
